Laboratory results published in patent US20160166488A1, “MEDICAMENT” (SYMRISE AG, priority 2013, published 2016).

Test system: MMP-1
Test: Inhibition of MMP-1 synthesis: release of MMP-1 from dermal fibroblasts as an effect of UV radiation (Amersham kit RPN2610)
Type: cell-based
Settings: dermal fibroblast culture, test product conc. 0.001 % w/v, incubation 36 h at 37° C., threefold determination; for MMP with UVA: with UVA (method text: UVB radiation 50 mJ/cm^2)
Procedure: Inhibition of MMP-1 Synthesis
The capacity of the test substances to alleviate the toxic effect of UVA radiation was investigated. A culture of dermal fibroblasts was used as an in vitro system, and the release of MMP-1 from these fibroblasts as an effect of UV radiation was determined. In order to carry out the experiment, a fibroblast culture with fetal calf serum was prepared and inoculated with the test substances 2 days thereafter. After incubation for 36 h at 37° C. with a CO2 level of 5 vol %, the nutrient medium was replaced with an electrolyte solution, and the fibroblasts were damaged with a specified dose of UVB radiation (50 mJ/cm^2). Determination of MMP was carried out with a kit that is commercially available from the firm Amersham under the name RPN2610. The amount of MMP is given in ng/ml from a test series with threefold determination.

| Compound | MMP with UVA [rel. %] | MMP without UVA [rel. %] |
| --- | --- | --- |
| NCCC(=O)N[C@@H](Cc1cnc[nH]1)C(=O)O [L-carnosine] | 101 ± 17 | 22 ± 5 |
| CCCCCCOC(=O)c1ccccc1C(=O)c1ccc(N(CC)CC)cc1O [Uvinul A, 2-(4-diethylamino-2-hydroxybenzoyl)-benzoic acid hexyl ester] | 99 ± 12 | 17 ± 3 |
| C[N+](C)(C)C[C@H](O)CC(=O)O.[Cl-] [Carnitine*HCl] | 118 ± 21 | 24 ± 7 |
| CCCCC(CC)COC(=O)C(C#N)=C(c1ccccc1)c1ccccc1 (centres unmarked) [Octocrinyl, 2-cyano-3,3-phenylcinnamic acid-2-ethylhexyl ester] | 100 ± 20 | 17 ± 7 |
